Literature values in patent US20030083286A1, “Bioadhesive compositions and methods for enhanced intestinal drug absorption” (priority 2001, published 2003).
Like-named read-outs stand apart in the source and are kept apart here. In the oligonucleotide strings, read from the 5' end, every base follows the letter of its sugar. An asterisk marks phosphorothioate; unmarked linkages are phosphodiester. Other units and linkages are bracketed, terminal groups are in braces. A string of capitals states the bases alone. d = 2'-deoxy (DNA)

How the values were obtained:
[1] = tested on: ICAM-1; conditions: C8161 human melanoma cells
[2] = tested on: C8161 cells
[3] = tested on: ICAM-1 over HLA-A and HLA-B; conditions: versus HLA-A and HLA-B
[4] = tested on: ICAM-1
[5] = not given; remark: listed apart in the source

Substance	ICAM-1 expression (mRNA levels, northern blot) [1]	enhanced metastatic ability of C8161 cells resulting from TNF-α treatment ([2]; TNF-α treated cells)	metastatic potential of C8161 cells ([2]; in vivo)	activity against Crohn's disease in humans (humans)	steroid-sparing effect on treated subjects (humans, five months post-treatment weaned from steroids and in remission)	safety in humans (in vivo)	specificity for target ICAM-1 over other potential nucleic acid targets [3]	ICAM-1 expression ([4]; human epidermal carcinoma cells (A431))	ICAM-1 expression ([4]; human keratinocytes)	ICAM-1 expression ([4]; human lung carcinoma cells (A549))	ICAM-1 expression ([4]; human umbilical vein cells)	anti-inflammatory effects in animal testing ([5]; Crohn's disease, rheumatoid arthritis, psoriasis, ulcerative colitis, kidney transplant rejection)	biological activity in animal models of inflammatory disease ([5]; in vivo)
ISIS 1939: 2′-oligodeoxynucleotide, phosphorothioate backbone, 5′-CCC-CCA-CCA-CTT-CCC-CTC-TC-3′ (SEQ ID NO:2), targeted to 3′-UTR of human ICAM-1 gene (antisense CCCCCACCACTTCCCCTCTC; DNA, all phosphorothioate, methylation of C not given here)	markedly reduced ICAM-1 expression	–	–	–	–	–	–	–	–	–	–	–	–
ISIS 2302: 2′-deoxyoligonucleotide, phosphorothioate backbone, 5′-GCC-CAA-GCT-GGC-ATC-CGT-CA-3′ (SEQ ID NO:1), targeted to 3′-UTR of human ICAM-1 gene (antisense dG*dC*dC*dC*dA*dA*dG*dC*dT*dG*dG*dC*dA*dT*dC*dC*dG*dT*dC*dA)	markedly reduced ICAM-1 expression	eliminated the enhanced metastatic ability	decreased the metastatic potential	activity against Crohn's disease	statistically significant steroid-sparing effect	good safety	demonstrated specificity	inhibit ICAM-1 expression	inhibit ICAM-1 expression	inhibit ICAM-1 expression	inhibit ICAM-1 expression	strong anti-inflammatory effects	significant biological activity
